# Tests used:
# [1] = target: T1, Alpha-2A adrenergic receptor (Homo sapiens, UniProt P08913); assay type: cell membranes, Sf9, Membrane; conditions: for Ki: read-out: Ki; on all read-outs here: in other assays of this panel Not Active means under 50% inhibition at 10 µM
# T1 sequence (P08913 whole entry): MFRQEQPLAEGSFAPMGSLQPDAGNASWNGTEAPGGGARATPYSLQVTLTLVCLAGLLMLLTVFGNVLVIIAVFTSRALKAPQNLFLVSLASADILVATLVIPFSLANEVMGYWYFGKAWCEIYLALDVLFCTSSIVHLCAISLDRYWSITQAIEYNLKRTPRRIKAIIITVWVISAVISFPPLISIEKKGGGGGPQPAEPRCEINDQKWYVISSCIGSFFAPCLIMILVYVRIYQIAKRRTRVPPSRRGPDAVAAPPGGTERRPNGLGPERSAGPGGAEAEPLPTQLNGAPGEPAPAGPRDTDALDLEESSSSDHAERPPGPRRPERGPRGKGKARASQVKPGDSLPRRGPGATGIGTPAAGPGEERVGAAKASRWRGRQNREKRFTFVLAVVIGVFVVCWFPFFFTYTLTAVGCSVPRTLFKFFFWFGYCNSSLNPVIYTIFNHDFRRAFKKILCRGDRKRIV
# [2] = target: 5-hydroxytryptamine receptor 2B (Homo sapiens, UniProt P41595); assay type: cell membranes, CHO-K1, Membrane; conditions: for Ki: read-out: Ki; on all read-outs here: in other assays of this panel Not Active means under 50% inhibition at 10 µM
# [3] = target: 5-hydroxytryptamine receptor 1B (Rattus norvegicus, UniProt P28564); assay type: cell membranes, Wistar, Cerebral cortex, Membrane; further: in other assays of this panel Not Active means under 50% inhibition at 10 µM
# [4] = DRUGMATRIX: Serotonin (5-Hydroxytryptamine) 5-HT3 radioligand binding (ligand: [3H] GR-65630); assay type: cell membranes, Membrane; conditions: hek293; Not Active = under 50% inhibition at 10 µM
# [5] = target: T2, Nitric oxide synthase, inducible (Mus musculus, UniProt P29477); parameters: species or system Escherichia coli;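 further: inhibition of iNOS enzyme activity measured with L-arginine as substrate; in other assays of this panel Not Active means under 50% inhibition at 10 µM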
# T2 sequence (P29477 whole entry): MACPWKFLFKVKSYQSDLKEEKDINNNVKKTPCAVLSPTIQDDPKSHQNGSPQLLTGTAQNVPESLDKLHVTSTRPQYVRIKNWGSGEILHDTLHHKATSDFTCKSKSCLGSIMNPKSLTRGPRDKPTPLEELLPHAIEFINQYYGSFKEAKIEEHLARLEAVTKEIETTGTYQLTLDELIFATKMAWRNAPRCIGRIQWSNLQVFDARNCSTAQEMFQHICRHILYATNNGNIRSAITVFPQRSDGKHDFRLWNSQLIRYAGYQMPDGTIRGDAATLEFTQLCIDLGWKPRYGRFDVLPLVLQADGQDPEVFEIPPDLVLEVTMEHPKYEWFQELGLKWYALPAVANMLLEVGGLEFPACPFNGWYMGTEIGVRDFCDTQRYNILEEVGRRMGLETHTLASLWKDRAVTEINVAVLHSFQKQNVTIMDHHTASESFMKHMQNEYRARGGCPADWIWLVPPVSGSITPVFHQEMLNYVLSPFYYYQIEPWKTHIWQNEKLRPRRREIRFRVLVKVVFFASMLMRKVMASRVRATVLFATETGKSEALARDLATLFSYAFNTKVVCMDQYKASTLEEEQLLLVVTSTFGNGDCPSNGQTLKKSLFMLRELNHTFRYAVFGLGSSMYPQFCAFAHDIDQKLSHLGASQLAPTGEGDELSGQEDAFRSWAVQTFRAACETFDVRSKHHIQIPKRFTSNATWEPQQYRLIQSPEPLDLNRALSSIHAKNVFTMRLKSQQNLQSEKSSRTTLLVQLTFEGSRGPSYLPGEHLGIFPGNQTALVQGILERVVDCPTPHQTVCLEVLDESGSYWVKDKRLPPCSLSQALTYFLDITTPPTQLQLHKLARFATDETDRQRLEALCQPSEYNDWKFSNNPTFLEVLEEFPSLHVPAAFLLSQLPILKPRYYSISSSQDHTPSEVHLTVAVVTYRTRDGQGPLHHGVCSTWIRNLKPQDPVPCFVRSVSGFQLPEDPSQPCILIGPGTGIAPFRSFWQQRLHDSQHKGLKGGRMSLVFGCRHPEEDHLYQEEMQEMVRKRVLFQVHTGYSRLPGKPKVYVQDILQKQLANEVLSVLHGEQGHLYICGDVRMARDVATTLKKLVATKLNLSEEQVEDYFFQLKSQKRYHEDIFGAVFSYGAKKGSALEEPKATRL
# [6] = target: T3, 3-hydroxy-3-methylglutaryl-coenzyme A reductase (Homo sapiens, UniProt P04035); parameters: species or system Escherichia coli
# T3 sequence (P04035 whole entry): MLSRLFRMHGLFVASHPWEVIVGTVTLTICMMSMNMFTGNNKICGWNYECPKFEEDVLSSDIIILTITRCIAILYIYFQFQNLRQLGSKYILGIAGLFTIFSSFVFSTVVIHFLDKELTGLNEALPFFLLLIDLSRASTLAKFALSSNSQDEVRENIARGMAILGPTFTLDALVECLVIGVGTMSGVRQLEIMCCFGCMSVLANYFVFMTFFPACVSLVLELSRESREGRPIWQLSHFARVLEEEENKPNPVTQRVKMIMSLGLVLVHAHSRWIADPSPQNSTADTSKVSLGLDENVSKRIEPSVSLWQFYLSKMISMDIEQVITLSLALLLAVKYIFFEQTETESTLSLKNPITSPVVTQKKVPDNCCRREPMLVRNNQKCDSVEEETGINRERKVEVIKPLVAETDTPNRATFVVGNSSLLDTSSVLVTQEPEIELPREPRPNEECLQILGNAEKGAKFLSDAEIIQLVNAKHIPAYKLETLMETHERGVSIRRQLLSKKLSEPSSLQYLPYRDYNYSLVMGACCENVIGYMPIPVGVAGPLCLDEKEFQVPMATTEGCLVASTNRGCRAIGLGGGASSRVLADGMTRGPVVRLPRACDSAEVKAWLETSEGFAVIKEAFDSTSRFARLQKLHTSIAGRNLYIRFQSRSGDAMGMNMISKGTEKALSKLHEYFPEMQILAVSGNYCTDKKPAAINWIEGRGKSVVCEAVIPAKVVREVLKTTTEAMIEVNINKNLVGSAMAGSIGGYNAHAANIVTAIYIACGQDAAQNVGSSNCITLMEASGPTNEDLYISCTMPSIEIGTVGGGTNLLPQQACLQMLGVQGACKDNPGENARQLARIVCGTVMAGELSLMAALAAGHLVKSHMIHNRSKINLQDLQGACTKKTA
# Sequence of 5-hydroxytryptamine receptor 1B (P28564 whole entry): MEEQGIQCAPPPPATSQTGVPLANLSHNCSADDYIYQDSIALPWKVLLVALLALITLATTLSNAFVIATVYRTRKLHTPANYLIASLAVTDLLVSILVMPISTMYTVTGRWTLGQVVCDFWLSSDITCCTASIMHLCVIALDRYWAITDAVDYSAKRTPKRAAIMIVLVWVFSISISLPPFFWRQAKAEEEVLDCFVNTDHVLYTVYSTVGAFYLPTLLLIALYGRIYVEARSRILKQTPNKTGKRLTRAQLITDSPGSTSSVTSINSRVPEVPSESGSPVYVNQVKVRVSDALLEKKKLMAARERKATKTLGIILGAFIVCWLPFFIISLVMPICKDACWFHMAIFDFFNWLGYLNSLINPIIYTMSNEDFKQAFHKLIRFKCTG
# Sequence of 5-hydroxytryptamine receptor 2B (P41595 whole entry): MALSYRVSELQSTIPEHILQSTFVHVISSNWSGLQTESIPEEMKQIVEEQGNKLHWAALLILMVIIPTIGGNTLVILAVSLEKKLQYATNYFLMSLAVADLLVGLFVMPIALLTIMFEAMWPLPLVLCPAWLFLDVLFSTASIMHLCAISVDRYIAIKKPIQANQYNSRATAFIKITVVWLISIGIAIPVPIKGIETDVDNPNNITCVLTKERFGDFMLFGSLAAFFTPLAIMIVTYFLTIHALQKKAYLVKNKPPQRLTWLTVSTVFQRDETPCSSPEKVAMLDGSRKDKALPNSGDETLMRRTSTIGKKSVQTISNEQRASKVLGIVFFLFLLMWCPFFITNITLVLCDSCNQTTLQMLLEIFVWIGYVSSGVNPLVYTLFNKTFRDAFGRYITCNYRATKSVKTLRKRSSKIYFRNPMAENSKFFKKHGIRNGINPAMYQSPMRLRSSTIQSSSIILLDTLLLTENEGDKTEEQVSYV
Structure (SMILES),IC50 ([1]; sf9),IC50 ([2]; cho-k1),IC50 [3],IC50 [4],Ki [4],IC50 [5],IC50 [6],IC50 ([1]; read-out: IC50) [nM],Ki [1] [nM],IC50 ([2]; read-out: IC50) [nM],Ki [2] [nM],IC50 ([3]; read-out: IC50) [nM],Ki ([3]; read-out: Ki) [nM]
CCCNC(C)C(=O)Nc1ccccc1C (configuration not stated) [PRILOCAINE],Not Active,Not Active,Not Active,Not Active,Not Active,Not Active,Not Active,–,–,–,–,–,–
NS(=O)(=O)c1cc(C2(O)NC(=O)c3ccccc32)ccc1Cl (configuration not stated) [CHLORTHALIDONE],Not Active,Not Active,Not Active,Not Active,Not Active,Not Active,Not Active,–,–,–,–,–,–
CCN(CC)CCCC(C)Nc1c2ccc(Cl)cc2nc2ccc(OC)cc12 (configuration not stated) [QUINACRINE],–,Not Active,Not Active,Not Active,Not Active,Not Active,Not Active,2280,855,–,–,–,–
CN1CCC(=C2c3ccccc3CC(=O)c3sccc32)CC1 [KETOTIFEN],–,–,Not Active,Not Active,Not Active,Not Active,Not Active,2190,820,46,29,–,–
Cc1c(O)cccc1C(=O)N[C@@H](CSc1ccccc1)[C@H](O)CN1C[C@H]2CCCC[C@H]2C[C@H]1C(=O)NC(C)(C)C,Not Active,Not Active,Not Active,Not Active,Not Active,Not Active,Not Active,–,–,–,–,–,–
Cn1c(=O)c2c(ncn2C)n(C)c1=O [CAFFEINE],Not Active,Not Active,Not Active,Not Active,Not Active,Not Active,Not Active,–,–,–,–,–,–
CC(C)NCC(O)c1ccccc1Cl (configuration not stated) [CLORPRENALINE],Not Active,Not Active,Not Active,Not Active,Not Active,Not Active,Not Active,–,–,–,–,–,–
NC(=O)c1cccnc1 [NIACINAMIDE],Not Active,Not Active,Not Active,Not Active,Not Active,Not Active,Not Active,–,–,–,–,–,–
C[C@]12C=CC(=O)C=C1CC[C@H]1[C@@H]3C[C@@H](O)[C@](O)(C(=O)CO)[C@@]3(C)C[C@H](O)[C@@]12F [TRIAMCINOLONE],Not Active,Not Active,Not Active,Not Active,Not Active,Not Active,Not Active,–,–,–,–,–,–
CC(=O)OCC(=O)[C@@]1(O)CC[C@H]2[C@@H]3CCC4=CC(=O)CC[C@]4(C)[C@@]3(F)[C@@H](O)C[C@@]21C [FLUDROCORTISONE ACETATE],Not Active,Not Active,Not Active,Not Active,Not Active,Not Active,Not Active,–,–,–,–,–,–
CN(C)C(=O)Oc1cccc([N+](C)(C)C)c1.[Br-] [NEOSTIGMINE BROMIDE],Not Active,Not Active,Not Active,Not Active,Not Active,Not Active,Not Active,–,–,–,–,–,–
C[C@]12CC[C@@H]3c4ccc(O)cc4CC[C@H]3[C@@H]1C[C@@H](O)[C@@H]2O [ESTRIOL],Not Active,Not Active,Not Active,Not Active,Not Active,Not Active,Not Active,–,–,–,–,–,–
CCN(CC)CCNC(=O)c1ccc(N)cc1 [PROCAINAMIDE],Not Active,Not Active,Not Active,Not Active,Not Active,Not Active,Not Active,–,–,–,–,–,–
O=C(O)P(=O)(O)O [FOSCARNET],Not Active,Not Active,Not Active,Not Active,Not Active,Not Active,Not Active,–,–,–,–,–,–
C[C@H]1[C@H](NC(=O)/C(=N\OC(C)(C)C(=O)O)c2csc(N)n2)C(=O)N1S(=O)(=O)O [AZTREONAM],Not Active,Not Active,Not Active,Not Active,Not Active,Not Active,Not Active,–,–,–,–,–,–
CN1C[C@@H]2C[C@H]1CN2c1cc2c(cc1F)c(=O)c(C(=O)O)cn2C1CC1 [DANOFLOXACIN],Not Active,Not Active,Not Active,Not Active,Not Active,Not Active,Not Active,–,–,–,–,–,–
CC(=O)OCC(=O)[C@@]12OC(C)(C)O[C@@H]1C[C@H]1[C@@H]3C[C@H](F)C4=CC(=O)C=C[C@]4(C)[C@@]3(F)[C@@H](O)C[C@@]12C [FLUOCINONIDE],Not Active,Not Active,Not Active,Not Active,Not Active,Not Active,Not Active,–,–,–,–,–,–
CN1CCCC(CN2c3ccccc3Sc3ccccc32)C1 (configuration not stated) [MEPAZINE],–,–,Not Active,Not Active,Not Active,Not Active,Not Active,1460,546,514,327,–,–
NCCCNCCSP(=O)(O)O [AMIFOSTINE],Not Active,Not Active,Not Active,Not Active,Not Active,Not Active,Not Active,–,–,–,–,–,–
CC(C)c1c(C(=O)Nc2ccccc2)c(-c2ccccc2)c(-c2ccc(F)cc2)n1CC[C@@H](O)C[C@@H](O)CC(=O)O [ATORVASTATIN],Not Active,Not Active,Not Active,Not Active,Not Active,Not Active,–,–,–,–,–,–,–
CN(C)CCC=C1c2ccccc2CCc2ccccc21 [AMITRIPTYLINE],–,–,–,Not Active,Not Active,Not Active,Not Active,351,132,–,–,3730,1690
